Test results published in US20070093520A1, “Method of treatment of diarrhea-predominant irritable bowel syndrome in a subject” (priority 2005, published 2007).

Tested on: diarrhea-predominant IBS subjects
Assay: 3007 Study: open-label 52-week safety study, adverse events and withdrawals
[1] = Overall, N=536, % of appropriate gender

`Cc1nccn1C[C@H]1CCc2c(c3cccc4c3n2CCC4)C1=O` [cilansetron, (R)-(−)-4,5,6,8,9,10-hexahydro-10-[(2-methyl-1H-imidazol-1-yl)methyl]-11H-pyrido-[3,2,1-jk]-carbazol-11-one] was tested. Which “TEAE leading to permanent discontinuation: Dyspepsia” value (Overall, N=536) did it give?
The value was 2 (<1%) n (%).

And the “TEAE leading to permanent discontinuation: Ear and Labyrinth Disorders” value (Overall, N=536)?
Its value is 1 (<1%) n (%).

And the “TEAE leading to permanent discontinuation: Epigastric Discomfort” value (Overall, N=536)?
The value was 1 (<1%) n (%).

What about the “TEAE leading to permanent discontinuation: Eructation” value (Overall, N=536) of the same compound?
Its value is 1 (<1%) n (%).

And the “TEAE leading to permanent discontinuation: Eye Disorders” value (Overall, N=536)?
Its value is 1 (<1%) n (%).

And the “TEAE leading to permanent discontinuation: Faecal Abnormality NOS” value (Overall, N=536)?
Its value is 1 (<1%) n (%).

What about the “TEAE leading to permanent discontinuation: Faecal Impaction” value (Overall, N=536) of the same compound?
Its value is 1 (<1%) n (%).

What about the “TEAE leading to permanent discontinuation: Faecal Incontinence” value (Overall, N=536) of the same compound?
The value was 1 (<1%) n (%).

And the “TEAE leading to permanent discontinuation: Faeces Hard” value (Overall, N=536)?
The value was 1 (<1%) n (%).

And the “TEAE leading to permanent discontinuation: Fatigue” value (Overall, N=536)?
Its value is 4 (<1%) n (%).

And the “TEAE leading to permanent discontinuation: Fibroma NOS” value (Overall, N=536)?
Its value is 1 (<1%) n (%).

What about the “TEAE leading to permanent discontinuation: Flatulence” value (Overall, N=536) of the same compound?
Its value is 7 (1%) n (%).

What about the “TEAE leading to permanent discontinuation: Gastric Irritation” value (Overall, N=536) of the same compound?
Its value is 1 (<1%) n (%).

What about the “TEAE leading to permanent discontinuation: Gastrointestinal Disorders” value (Overall, N=536) of the same compound?
Its value is 64 (12%) n (%).

What about the “TEAE leading to permanent discontinuation: Gastrointestinal Motility Disorder NOS” value (Overall, N=536) of the same compound?
Its value is 1 (<1%) n (%).

What about the “TEAE leading to permanent discontinuation: General Disorders and Administration Site Conditions” value (Overall, N=536) of the same compound?
Its value is 7 (1%) n (%).

And the “TEAE leading to permanent discontinuation: Haemorrhoidal Haemorrhage” value (Overall, N=536)?
Its value is 1 (<1%) n (%).

And the “TEAE leading to permanent discontinuation: Hallucination NOS” value (Overall, N=536)?
The value was 1 (<1%) n (%).

What about the “TEAE leading to permanent discontinuation: Hallucination, Auditory” value (Overall, N=536) of the same compound?
Its value is 1 (<1%) n (%).

And the “TEAE leading to permanent discontinuation: Headache NOS” value (Overall, N=536)?
The value was 4 (<1%) n (%).

And the “TEAE leading to permanent discontinuation: Headache NOS Aggravated” value (Overall, N=536)?
The value was 1 (<1%) n (%).

What about the “TEAE leading to permanent discontinuation: Heart Rate Increased” value (Overall, N=536) of the same compound?
Its value is 1 (<1%) n (%).

What about the “TEAE leading to permanent discontinuation: Hepatobiliary Disorders” value (Overall, N=536) of the same compound?
Its value is 1 (<1%) n (%).

What about the “TEAE leading to permanent discontinuation: Hepatosplenomegaly NOS” value (Overall, N=536) of the same compound?
The value was 1 (<1%) n (%).

And the “TEAE leading to permanent discontinuation: Hiatus Hernia” value (Overall, N=536)?
Its value is 1 (<1%) n (%).

And the “TEAE leading to permanent discontinuation: Investigations” value (Overall, N=536)?
Its value is 5 (<1%) n (%).

And the “TEAE leading to permanent discontinuation: Irritable Bowel Syndrome Aggravated” value (Overall, N=536)?
The value was 1 (<1%) n (%).

And the “TEAE leading to permanent discontinuation: Lethargy” value (Overall, N=536)?
Its value is 1 (<1%) n (%).

And the “TEAE leading to permanent discontinuation: Metabolism and Nutrition Disorders” value (Overall, N=536)?
Its value is 1 (<1%) n (%).

And the “TEAE leading to permanent discontinuation: Migraine NOS” value (Overall, N=536)?
Its value is 1 (<1%) n (%).

And the “TEAE leading to permanent discontinuation: Muscle Cramps” value (Overall, N=536)?
Its value is 2 (<1%) n (%).

And the “TEAE leading to permanent discontinuation: Musculoskeletal and Connective Tissue Disorders” value (Overall, N=536)?
The value was 7 (1%) n (%).

And the “TEAE leading to permanent discontinuation: Nausea” value (Overall, N=536)?
Its value is 3 (<1%) n (%).

And the “TEAE leading to permanent discontinuation: Neoplasms Benign, Malignant and Unspecified (Incl Cysts and Polyps)” value (Overall, N=536)?
The value was 5 (<1%) n (%).

What about the “TEAE leading to permanent discontinuation: Nervous System Disorders” value (Overall, N=536) of the same compound?
Its value is 8 (1%) n (%).

And the “TEAE leading to permanent discontinuation: Pregnancy, Puerperium and Perinatal Conditions” value (Overall, N=536)?
Its value is 1 (<1%) n (%).

And the “TEAE leading to permanent discontinuation: Pruritus NOS” value (Overall, N=536)?
The value was 1 (<1%) n (%).

What about the “TEAE leading to permanent discontinuation: Psychiatric Disorders” value (Overall, N=536) of the same compound?
The value was 1 (<1%) n (%).

What about the “TEAE leading to permanent discontinuation: Psychotic Disorder NOS” value (Overall, N=536) of the same compound?
Its value is 1 (<1%) n (%).

And the “TEAE leading to permanent discontinuation: Rash Macular” value (Overall, N=536)?
The value was 1 (<1%) n (%).

And the “TEAE leading to permanent discontinuation: Rash NOS” value (Overall, N=536)?
The value was 1 (<1%) n (%).

And the “TEAE leading to permanent discontinuation: Rectal Disorder NOS” value (Overall, N=536)?
The value was 1 (<1%) n (%).

And the “TEAE leading to permanent discontinuation: Rectal Haemorrhage” value (Overall, N=536)?
Its value is 4 (<1%) n (%).

What about the “TEAE leading to permanent discontinuation: Rectal Tenesmus” value (Overall, N=536) of the same compound?
The value was 1 (<1%) n (%).

What about the “TEAE leading to permanent discontinuation: Renal and Urinary Disorders” value (Overall, N=536) of the same compound?
The value was 1 (<1%) n (%).

And the “TEAE leading to permanent discontinuation: Respiratory, Thoracic and Mediastinal Disorders” value (Overall, N=536)?
Its value is 3 (<1%) n (%).

What about the “TEAE leading to permanent discontinuation: Skin and Subcutaneous Tissue Disorders” value (Overall, N=536) of the same compound?
The value was 4 (<1%) n (%).

And the “TEAE leading to permanent discontinuation: Somnolence” value (Overall, N=536)?
The value was 1 (<1%) n (%).

What about the “TEAE leading to permanent discontinuation: Stomach Discomfort” value (Overall, N=536) of the same compound?
The value was 1 (<1%) n (%).

And the “TEAE leading to permanent discontinuation: Suicidal Ideation” value (Overall, N=536)?
Its value is 1 (<1%) n (%).

What about the “TEAE leading to permanent discontinuation: Urticaria NOS” value (Overall, N=536) of the same compound?
Its value is 1 (<1%) n (%).

What about the “TEAE leading to permanent discontinuation: Vertigo” value (Overall, N=536) of the same compound?
The value was 1 (<1%) n (%).

What about the “TEAE leading to permanent discontinuation: Visual Acuity Reduced” value (Overall, N=536) of the same compound?
The value was 1 (<1%) n (%).

And the “TEAE leading to permanent discontinuation: Vomiting NOS” value (Overall, N=536)?
The value was 1 (<1%) n (%).

And the “TEAE leading to permanent discontinuation: White Blood Cells Urine Positive” value (Overall, N=536)?
Its value is 1 (<1%) n (%).

And the “Total Number of Subjects with at Least One TEAE Leading to Discontinuation of Study Medication” value (Overall, N=536)?
Its value is 83 (15%) n (%).

What about the “TEAE leading to permanent discontinuation: Benign Ovarian Tumour*” value [1] of the same compound?
The value was 1 (<1%) n (%).

What about the “TEAE leading to permanent discontinuation: Breast Cancer NOS*” value [1] of the same compound?
The value was 2 (<1%) n (%).

What about the “TEAE leading to permanent discontinuation: Ovarian Cancer NOS*” value [1] of the same compound?
Its value is 1 (<1%) n (%).

And the “TEAE leading to permanent discontinuation: Ovarian Cystadenofibroma*” value [1]?
The value was 1 (<1%) n (%).

And the “TEAE leading to permanent discontinuation: Pregnancy NOS*” value [1]?
Its value is 1 (<1%) n (%).

And the “TEAE: Female Reproductive Tract Infections*” value (Overall, gender-specific)?
The value was 2 (<1%) n (%).

And the “TEAE: Prostate Examination Abnormal*” value (Overall, gender-specific)?
Its value is 1 (<1%) n (%).

What about the “TEAE: Smear Cervix Abnormal*” value (Overall, gender-specific) of the same compound?
Its value is 1 (<1%) n (%).

And the “TEAE: Vaginal Candidiasis*” value (Overall, gender-specific)?
Its value is 2 (<1%) n (%).

And the “TEAE: Vaginitis Bacterial NOS*” value (Overall, gender-specific)?
The value was 1 (<1%) n (%).

And the “TEAE: Vaginitis*” value (Overall, gender-specific)?
The value was 1 (<1%) n (%).

What about the “TEAE: Vaginosis Fungal NOS*” value (Overall, gender-specific) of the same compound?
Its value is 2 (<1%) n (%).

What about the “TEAE: Abdominal Therapeutic Procedures NEC” value (P/C group) of the same compound?
The value was 1 (<1%) n (%).

And the “TEAE: Abdominoplasty” value (P/C group)?
Its value is 1 (<1%) n (%).

What about the “TEAE: Abnormal Chest Sounds NOS” value (P/C group) of the same compound?
The value was 1 (<1%) n (%).

And the “TEAE: Acne NOS” value (P/C group)?
Its value is 0 n (%).

And the “TEAE: Acnes” value (P/C group)?
The value was 0 n (%).

And the “TEAE: Acquired Hypothyroidism” value (P/C group)?
The value was 1 (<1%) n (%).

And the “TEAE: Acrochordons” value (P/C group)?
Its value is 1 (<1%) n (%).

What about the “TEAE: Adenomyosis*” value (P/C group) of the same compound?
The value was 0 n (%).

What about the “TEAE: Age Related Issues” value (P/C group) of the same compound?
Its value is 1 (<1%) n (%).

And the “TEAE: Allergic Conditions NEC” value (P/C group)?
The value was 2 (<1%) n (%).

And the “TEAE: Allergies to Foods, Food Additives, Drugs and Other Chemicals” value (P/C group)?
The value was 1 (<1%) n (%).

What about the “TEAE: Allergy to Insect Sting” value (P/C group) of the same compound?
The value was 1 (<1%) n (%).

And the “TEAE: Alopecia” value (P/C group)?
Its value is 1 (<1%) n (%).

And the “TEAE: Alopecias” value (P/C group)?
The value was 1 (<1%) n (%).

What about the “TEAE: Amenorrhoea NOS*” value (P/C group) of the same compound?
The value was 0 n (%).

What about the “TEAE: Anaemia NOS” value (P/C group) of the same compound?
Its value is 1 (<1%) n (%).
